Each structure is given as a SMILES string.

The values below come from article PMC10176470, “Engaging a Non-catalytic Cysteine Residue Drives Potent and Selective Inhibition of Caspase-6” (Journal of the American Chemical Society, 2023).

Holding throughout (type): cell-based
Test [1] deals with proteins of HEK293T cells transiently overexpressing caspase-6 (Homo sapiens, UniProt P53396). To be noted: exp_ref Probe; protein ACLY (P53396); analysis C6.
The target of test [2] is proteins of HEK293T cells transiently overexpressing caspase-6 (Homo sapiens, UniProt P35998). The following applies: exp_ref Probe; protein PSMC2 (P35998); analysis C6.
The target of test [3] is proteins of HEK293T cells transiently overexpressing caspase-6 (Homo sapiens, UniProt P08865). To be noted: exp_ref Probe; protein RPSA (P08865); analysis C6.
Test [4] has as its target T1, proteins of HEK293T cells transiently overexpressing caspase-6 (Homo sapiens, UniProt P30041).
T1 sequence (P30041 1-224): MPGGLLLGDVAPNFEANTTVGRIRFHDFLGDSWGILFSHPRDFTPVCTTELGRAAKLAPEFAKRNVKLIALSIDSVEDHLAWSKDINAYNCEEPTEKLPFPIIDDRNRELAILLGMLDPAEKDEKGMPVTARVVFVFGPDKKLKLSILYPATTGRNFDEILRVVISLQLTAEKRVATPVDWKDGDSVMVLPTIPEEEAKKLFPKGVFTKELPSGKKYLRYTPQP
To be noted: protein PRDX6 (P30041).

Test [5] addresses T2, proteins of HEK293T cells transiently overexpressing caspase-6 (Homo sapiens, UniProt P30101).
T2 sequence (P30101 25-505): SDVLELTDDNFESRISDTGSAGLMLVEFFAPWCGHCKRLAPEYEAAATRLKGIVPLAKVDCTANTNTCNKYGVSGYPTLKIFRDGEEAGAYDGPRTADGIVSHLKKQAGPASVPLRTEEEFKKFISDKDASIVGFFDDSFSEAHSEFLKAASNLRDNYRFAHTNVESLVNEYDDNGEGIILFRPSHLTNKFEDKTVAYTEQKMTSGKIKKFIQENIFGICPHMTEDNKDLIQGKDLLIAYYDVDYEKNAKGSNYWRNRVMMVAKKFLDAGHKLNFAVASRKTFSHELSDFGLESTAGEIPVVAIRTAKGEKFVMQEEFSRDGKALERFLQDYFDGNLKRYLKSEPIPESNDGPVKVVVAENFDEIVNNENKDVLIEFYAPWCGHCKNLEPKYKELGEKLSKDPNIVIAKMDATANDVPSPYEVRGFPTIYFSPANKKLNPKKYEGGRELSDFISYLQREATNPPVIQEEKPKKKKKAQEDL
The following applies: protein PDIA3 (P30101).

Test [6] deals with T3, proteins of HEK293T cells transiently overexpressing caspase-6 (Homo sapiens, UniProt O43169).
T3 sequence (O43169 16-150): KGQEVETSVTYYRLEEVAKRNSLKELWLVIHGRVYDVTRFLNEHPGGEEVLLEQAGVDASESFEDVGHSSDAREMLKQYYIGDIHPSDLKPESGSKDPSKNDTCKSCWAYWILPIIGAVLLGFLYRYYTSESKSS
The following applies: protein CYB5B (O43169).

The target of test [7] is proteins of HEK293T cells transiently overexpressing caspase-6 (Homo sapiens, UniProt Q92900). The following applies: Probe; protein UPF1 Q92900.
Test [8] concerns the target proteins of HEK293T cells transiently overexpressing caspase-6 (Homo sapiens, UniProt P62913). The following applies: protein RPL11 (P62913).
Test [9] addresses proteins of HEK293T cells transiently overexpressing caspase-6 (Homo sapiens, UniProt P63104). The following applies: exp_ref Probe; protein YWHAZ (P63104); analysis C6.
Test [10] has as its target proteins of HEK293T cells transiently overexpressing caspase-6 (Homo sapiens, UniProt Q13263). To be noted: protein TRIM28 (Q13263).
In test [11] the target is proteins of HEK293T cells transiently overexpressing caspase-6 (Homo sapiens, UniProt P21964). The following applies: Probe; protein COMT P21964.
Test [12] deals with proteins of HEK293T cells transiently overexpressing caspase-6 (Homo sapiens, UniProt P61981). To be noted: Probe; protein YWHAG P61981.
The target of test [13] is proteins of HEK293T cells transiently overexpressing caspase-6 (Homo sapiens, UniProt P25205). To be noted: exp_ref Probe; protein MCM3 (P25205); analysis C6.
In test [14] the target is T4, proteins of HEK293T cells transiently overexpressing caspase-6 (Homo sapiens, UniProt O60506).
T4 sequence (O60506 1-623): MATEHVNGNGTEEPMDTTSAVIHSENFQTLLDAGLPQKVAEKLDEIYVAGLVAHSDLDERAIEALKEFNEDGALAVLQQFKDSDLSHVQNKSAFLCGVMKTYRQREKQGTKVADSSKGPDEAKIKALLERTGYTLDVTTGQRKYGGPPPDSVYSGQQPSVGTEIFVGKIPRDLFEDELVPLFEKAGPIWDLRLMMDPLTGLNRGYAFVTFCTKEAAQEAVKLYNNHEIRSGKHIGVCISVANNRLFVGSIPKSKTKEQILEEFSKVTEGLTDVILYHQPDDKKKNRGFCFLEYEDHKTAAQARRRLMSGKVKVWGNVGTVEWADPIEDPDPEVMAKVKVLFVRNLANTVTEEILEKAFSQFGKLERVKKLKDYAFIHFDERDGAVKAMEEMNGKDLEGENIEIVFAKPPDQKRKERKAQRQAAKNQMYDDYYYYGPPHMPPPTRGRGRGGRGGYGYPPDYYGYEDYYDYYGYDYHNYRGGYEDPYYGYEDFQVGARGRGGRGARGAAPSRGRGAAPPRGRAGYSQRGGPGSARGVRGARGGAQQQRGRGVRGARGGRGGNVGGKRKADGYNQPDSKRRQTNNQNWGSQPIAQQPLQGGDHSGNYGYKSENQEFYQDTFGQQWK
To be noted: exp_ref Probe; protein SYNCRIP (O60506); analysis C6.

Sequence of proteins of HEK293T cells transiently overexpressing caspase-6 (Homo sapiens, UniProt Q13263) (Q13263 whole entry): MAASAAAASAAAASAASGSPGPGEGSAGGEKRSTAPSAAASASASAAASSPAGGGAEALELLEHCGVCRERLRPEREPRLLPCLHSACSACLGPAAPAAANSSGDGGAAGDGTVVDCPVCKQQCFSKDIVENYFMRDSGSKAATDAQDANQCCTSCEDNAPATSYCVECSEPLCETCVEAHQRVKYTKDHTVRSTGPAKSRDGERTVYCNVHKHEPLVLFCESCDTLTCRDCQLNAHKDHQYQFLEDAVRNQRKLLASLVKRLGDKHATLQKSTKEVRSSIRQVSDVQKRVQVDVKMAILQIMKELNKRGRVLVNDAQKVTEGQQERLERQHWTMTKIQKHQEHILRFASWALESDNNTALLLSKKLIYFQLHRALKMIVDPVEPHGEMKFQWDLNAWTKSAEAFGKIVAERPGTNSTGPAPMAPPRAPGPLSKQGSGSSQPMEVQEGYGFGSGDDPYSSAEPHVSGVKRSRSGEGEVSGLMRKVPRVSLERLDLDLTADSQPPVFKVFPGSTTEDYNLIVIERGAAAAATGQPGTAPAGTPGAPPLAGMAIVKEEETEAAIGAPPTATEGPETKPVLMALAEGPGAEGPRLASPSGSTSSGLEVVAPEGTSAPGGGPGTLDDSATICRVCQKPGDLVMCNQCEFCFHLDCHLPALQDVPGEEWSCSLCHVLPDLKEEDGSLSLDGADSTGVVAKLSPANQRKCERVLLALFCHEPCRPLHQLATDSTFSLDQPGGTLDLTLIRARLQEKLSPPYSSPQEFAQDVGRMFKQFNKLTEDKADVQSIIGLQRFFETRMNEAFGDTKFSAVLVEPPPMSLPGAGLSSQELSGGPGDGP
Sequence of proteins of HEK293T cells transiently overexpressing caspase-6 (Homo sapiens, UniProt P25205) (P25205 whole entry): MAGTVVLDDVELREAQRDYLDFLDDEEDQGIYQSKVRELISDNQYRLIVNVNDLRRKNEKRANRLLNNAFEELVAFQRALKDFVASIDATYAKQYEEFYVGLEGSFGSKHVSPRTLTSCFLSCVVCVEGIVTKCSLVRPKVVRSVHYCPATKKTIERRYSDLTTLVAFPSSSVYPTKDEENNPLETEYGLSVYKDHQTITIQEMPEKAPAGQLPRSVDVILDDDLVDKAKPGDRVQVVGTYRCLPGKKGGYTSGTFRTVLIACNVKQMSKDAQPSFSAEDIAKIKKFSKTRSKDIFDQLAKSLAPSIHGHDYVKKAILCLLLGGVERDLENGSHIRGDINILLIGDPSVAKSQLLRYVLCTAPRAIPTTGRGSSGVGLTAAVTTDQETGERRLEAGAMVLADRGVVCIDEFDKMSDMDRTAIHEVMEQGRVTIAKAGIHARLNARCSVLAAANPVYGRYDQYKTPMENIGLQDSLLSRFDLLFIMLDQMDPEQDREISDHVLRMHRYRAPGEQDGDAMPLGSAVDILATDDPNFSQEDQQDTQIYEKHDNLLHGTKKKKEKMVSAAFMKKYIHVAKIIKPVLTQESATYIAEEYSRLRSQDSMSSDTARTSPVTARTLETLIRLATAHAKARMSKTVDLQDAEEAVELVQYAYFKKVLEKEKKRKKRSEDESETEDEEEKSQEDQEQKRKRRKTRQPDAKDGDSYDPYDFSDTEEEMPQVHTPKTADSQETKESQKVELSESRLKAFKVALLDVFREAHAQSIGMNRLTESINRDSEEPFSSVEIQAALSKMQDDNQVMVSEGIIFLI
Sequence of proteins of HEK293T cells transiently overexpressing caspase-6 (Homo sapiens, UniProt P63104) (P63104 whole entry): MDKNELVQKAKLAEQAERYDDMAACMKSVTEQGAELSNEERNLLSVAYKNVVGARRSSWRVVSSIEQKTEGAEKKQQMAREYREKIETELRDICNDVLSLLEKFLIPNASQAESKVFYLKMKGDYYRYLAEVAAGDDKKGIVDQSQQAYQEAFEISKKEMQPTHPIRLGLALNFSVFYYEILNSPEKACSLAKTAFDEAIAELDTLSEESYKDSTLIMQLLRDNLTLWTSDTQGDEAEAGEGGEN
Sequence of proteins of HEK293T cells transiently overexpressing caspase-6 (Homo sapiens, UniProt P35998) (P35998 whole entry): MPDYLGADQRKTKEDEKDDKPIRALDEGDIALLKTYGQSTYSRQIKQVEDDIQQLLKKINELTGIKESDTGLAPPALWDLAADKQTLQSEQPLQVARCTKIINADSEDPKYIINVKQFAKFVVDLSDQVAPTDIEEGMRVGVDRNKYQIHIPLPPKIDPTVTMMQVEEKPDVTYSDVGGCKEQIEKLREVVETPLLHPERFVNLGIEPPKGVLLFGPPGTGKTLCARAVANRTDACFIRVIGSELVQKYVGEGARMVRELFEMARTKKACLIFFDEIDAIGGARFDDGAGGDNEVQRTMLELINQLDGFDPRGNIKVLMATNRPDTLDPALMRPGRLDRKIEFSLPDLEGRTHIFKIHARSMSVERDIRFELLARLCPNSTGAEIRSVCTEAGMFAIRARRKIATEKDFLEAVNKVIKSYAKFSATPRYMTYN
Sequence of proteins of HEK293T cells transiently overexpressing caspase-6 (Homo sapiens, UniProt P53396) (P53396 whole entry): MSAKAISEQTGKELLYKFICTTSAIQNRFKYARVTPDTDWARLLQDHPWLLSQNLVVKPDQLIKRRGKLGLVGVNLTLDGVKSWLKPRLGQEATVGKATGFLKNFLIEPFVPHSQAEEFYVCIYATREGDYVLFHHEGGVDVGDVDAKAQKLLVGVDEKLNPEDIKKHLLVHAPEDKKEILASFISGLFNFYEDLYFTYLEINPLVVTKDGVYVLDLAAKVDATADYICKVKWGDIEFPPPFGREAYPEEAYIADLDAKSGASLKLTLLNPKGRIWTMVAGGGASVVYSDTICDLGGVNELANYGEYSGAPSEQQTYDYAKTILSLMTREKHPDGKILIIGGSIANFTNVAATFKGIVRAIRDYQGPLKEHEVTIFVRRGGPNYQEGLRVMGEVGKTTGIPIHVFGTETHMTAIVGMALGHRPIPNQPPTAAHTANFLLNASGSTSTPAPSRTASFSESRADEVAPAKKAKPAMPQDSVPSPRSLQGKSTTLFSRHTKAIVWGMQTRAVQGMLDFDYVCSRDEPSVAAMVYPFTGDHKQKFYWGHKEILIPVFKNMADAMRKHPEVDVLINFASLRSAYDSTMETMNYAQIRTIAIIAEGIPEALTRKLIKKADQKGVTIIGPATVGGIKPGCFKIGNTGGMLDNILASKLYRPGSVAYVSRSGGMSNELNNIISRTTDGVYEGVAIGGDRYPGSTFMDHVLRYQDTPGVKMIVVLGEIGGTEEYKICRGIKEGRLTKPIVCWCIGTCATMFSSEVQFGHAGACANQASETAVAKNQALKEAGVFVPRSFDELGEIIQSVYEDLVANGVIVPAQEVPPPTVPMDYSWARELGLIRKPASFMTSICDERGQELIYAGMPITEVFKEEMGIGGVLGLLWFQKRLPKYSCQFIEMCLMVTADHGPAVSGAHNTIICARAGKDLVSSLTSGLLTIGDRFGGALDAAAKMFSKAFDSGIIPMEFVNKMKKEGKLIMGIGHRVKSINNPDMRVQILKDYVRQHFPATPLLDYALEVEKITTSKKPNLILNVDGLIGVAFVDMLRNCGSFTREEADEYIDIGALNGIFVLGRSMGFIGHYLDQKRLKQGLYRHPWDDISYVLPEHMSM
Sequence of proteins of HEK293T cells transiently overexpressing caspase-6 (Homo sapiens, UniProt P21964) (P21964 whole entry): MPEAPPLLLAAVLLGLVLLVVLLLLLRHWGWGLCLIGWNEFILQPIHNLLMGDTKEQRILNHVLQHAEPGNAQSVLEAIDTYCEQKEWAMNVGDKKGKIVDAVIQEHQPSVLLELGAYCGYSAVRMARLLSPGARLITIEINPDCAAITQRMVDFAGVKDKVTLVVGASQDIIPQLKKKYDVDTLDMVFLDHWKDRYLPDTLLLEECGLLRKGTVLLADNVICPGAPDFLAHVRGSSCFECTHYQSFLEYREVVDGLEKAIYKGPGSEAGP
Sequence of proteins of HEK293T cells transiently overexpressing caspase-6 (Homo sapiens, UniProt Q92900) (Q92900 whole entry): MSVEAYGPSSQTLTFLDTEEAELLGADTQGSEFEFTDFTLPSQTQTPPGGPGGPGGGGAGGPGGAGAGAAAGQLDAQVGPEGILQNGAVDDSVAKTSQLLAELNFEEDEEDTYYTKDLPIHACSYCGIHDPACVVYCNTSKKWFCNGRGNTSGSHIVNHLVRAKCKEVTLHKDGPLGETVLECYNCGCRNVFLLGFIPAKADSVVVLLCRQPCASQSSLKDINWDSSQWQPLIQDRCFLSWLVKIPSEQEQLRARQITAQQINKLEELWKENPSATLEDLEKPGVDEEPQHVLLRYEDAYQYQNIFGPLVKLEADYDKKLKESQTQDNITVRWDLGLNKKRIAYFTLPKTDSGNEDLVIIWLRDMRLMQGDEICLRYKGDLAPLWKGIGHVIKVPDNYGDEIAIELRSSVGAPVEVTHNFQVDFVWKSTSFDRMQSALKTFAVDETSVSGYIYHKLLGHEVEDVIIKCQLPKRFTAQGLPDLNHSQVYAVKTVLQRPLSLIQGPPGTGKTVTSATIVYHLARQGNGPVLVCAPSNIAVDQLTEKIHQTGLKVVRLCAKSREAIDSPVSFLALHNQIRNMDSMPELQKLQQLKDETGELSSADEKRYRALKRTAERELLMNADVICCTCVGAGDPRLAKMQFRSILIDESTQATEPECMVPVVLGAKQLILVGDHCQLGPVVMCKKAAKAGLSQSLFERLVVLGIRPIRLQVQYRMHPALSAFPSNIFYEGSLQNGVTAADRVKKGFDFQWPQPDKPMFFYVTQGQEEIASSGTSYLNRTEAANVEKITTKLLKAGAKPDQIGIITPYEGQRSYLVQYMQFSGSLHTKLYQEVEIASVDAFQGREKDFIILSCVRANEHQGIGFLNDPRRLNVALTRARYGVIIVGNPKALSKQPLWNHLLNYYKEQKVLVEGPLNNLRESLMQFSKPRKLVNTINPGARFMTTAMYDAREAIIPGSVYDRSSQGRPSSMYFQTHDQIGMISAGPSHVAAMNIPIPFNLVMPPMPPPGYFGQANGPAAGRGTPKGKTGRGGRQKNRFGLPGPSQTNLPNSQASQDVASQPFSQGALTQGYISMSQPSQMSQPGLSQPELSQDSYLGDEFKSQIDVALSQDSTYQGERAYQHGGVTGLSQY

In the case of `C#CCOc1ccc([C@@H]2C[C@@H](C(=O)Nc3ccc(OC(F)(F)F)cc3)CN(S(=O)(=O)C=C)C2)cc1` (relative stereo) [13-t], the enrich.exp.med in [1] was -0.1134; in test [2], 0.5412; in test [3], -0.2936; in [4] (exp_ref Probe, analysis C6) it was 0.7015; in test [5] (exp_ref Probe, analysis C6), 0.6793; in test [6] (exp_ref Probe, analysis C6) it was 1.54. For the same compound, the enrich.exp.med in test [7] is reported as -0.4971; in test [8] (exp_ref Probe, analysis C6), 1.268; in test [9] it was 0.8069; in test [10] (exp_ref Probe, analysis C6), 0.8833; in [11], -3.436; in [12] it was -1.712. Also, the enrich.exp.med came out at 0.2109 in test [13] and 0.8584 in [14]. The enrich.exp.med.lin in test [4] came to 1.626; in test [5] it was 1.601; in test [6] it was 2.907; in [8], 2.408; in [10], 1.845. The enrich.exp.med.log2 in test [4] is 0.7015; in test [5], 0.6793; in [6] it was 1.54; in [8], 1.268; in test [10], 0.8833.
